Read-outs that look alike come from different tables or passages of the source.
Legend:
[1] = tested on: Surinam grass; assay: Test C pre-/postemergence herbicide test; assay type: in vivo, Urochloa decumbens
Description: (§1) Seeds of plant species selected from bermudagrass (Cynodon dactylon (L.) Pers.), Surinam grass (Urochloa decumbens (Staph) R. D. Webster, previously named Brachiaria decumbens Stapf), cocklebur (Xanthium strumarium L.), corn (Zea mays L.), large crabgrass (Digitaria sanguinalis (L.) Scop.), woolly cupgrass (Eriochloa villosa (Thunb.) Kunth), giant foxtail (Setaria faberi Herrm.), goosegrass (Eleusine indica (L.) Gaertn.), johnsongrass (Sorghum halepense (L.) Pers.), kochia (Kochia scoparia (L.) Schrad.), lambsquarters (Chenopodium album L.), morningglory (Ipomoea coccinea L.), eastern black nightshade (Solanum ptycanthum Dunal), yellow nutsedge (Cyperus esculentus L.), pigweed (Amaranthus retroflexus L.), common ragweed (Ambrosia elatior L.), soybean (Glycine max (L.) Merr.), common (oilseed) sunflower (Helianthus annuus L.) and velvetleaf (Abutilon theophrasti Medik.) were planted and treated preemergence with test chemicals formulated in a non-phytotoxic solvent mixture which included a surfactant.
(§2) At the same time, plants selected from these crop and weed species and also winter barley (Hordeum vulgare L.), blackgrass (Alopecurus myosuroides Huds.), canarygrass (Phalaris minor Retz.), chickweed (Stellaria media (L.) Vill.), downy bromegrass (Bromus tectorum L.), green foxtail (Setaria viridis (L.) Beauv.), Italian ryegrass (Lolium multiflorum Lam.), wheat (Triticum aestivum L.), wild oat (Avenafatua L.) and windgrass (Apera spica-venti (L.) Beauv.) were treated with postemergence applications of some of the test chemicals formulated in the same manner. Plants ranged in height from 2 to 18 cm (1- to 4-leaf stage) for postemergence treatments. Plant species in the flooded paddy test consisted of rice (Oryza sativa), smallflower umbrella sedge (Cyperus difformis L.), ducksalad (Heteranthera limosa (Sw.) Willd.) and barnyardgrass (Echinochloa crus-galli (L.) Beauv.) grown to the 2-leaf stage for testing. Treated plants and controls were maintained in a greenhouse for 12 to 14 days, after which time all species were compared to controls and visually evaluated. Plant response ratings, summarized in Table C, are based on a scale of 0 to 100 where 0 is no effect and 100 is complete control. A dash (-) response means no test result.

[2] = tested on: velvetleaf; assay: Test C pre-/postemergence herbicide test; assay type: in vivo, Abutilon theophrasti
Description: as §1, §2

[3] = tested on: morningglory; assay: Test A pre-/postemergence herbicide test; assay type: in vivo, Ipomoea spp.; conditions: for pest or weed control at 125 g/ha / pest or weed control at 500 g/ha: Ipomoea, 240 h, read-out: Morningglory plant response rating; for pest or weed control at 125 g/ha: 125 g ai/ha
Outline: (§3)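 Visual injury rating on a 0–100 scale (0 no effect, 100 complete control) versus untreated controls, about ten days after treatment in greenhouse. Pre: directed soil spray onto seeded sandy loam. Post: spray to runoff on plants 2–10 cm tall at one- to two-leaf stage.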

[4] = tested on: johnsongrass; assay: Test C pre-/postemergence herbicide test; assay type: in vivo, Sorghum halepense; conditions: for Plant response rating (0 = no effect, 100 = complete control), Johnsongrass: 125 g ai/ha
Description: as §1, §2

[5] = tested on: barnyardgrass; assay: Test A pre-/postemergence herbicide test; assay type: in vivo, Echinochloa crus-galli; conditions: for pest or weed control at 125 g/ha / pest or weed control at 500 g/ha: Echinochloa crus-galli, 240 h, read-out: Barnyardgrass plant response rating; for pest or weed control at 125 g/ha: 125 g ai/ha
Outline: as §3

[6] = tested on: corn; assay: Test C pre-/postemergence herbicide test; assay type: in vivo, Zea mays
Description: as §1, §2

[7] = tested on: woolly cupgrass; assay: Test C pre-/postemergence herbicide test; assay type: in vivo, Eriochloa villosa
Description: as §1, §2

[8] = tested on: smallflower umbrella sedge; assay: Test C flooded paddy test; assay type: in vivo, Cyperus difformis
[9] = Postemergence, 500 g ai/ha, scale 0 to 100
[10] = Postemergence, 250 g ai/ha, scale 0 to 100, 0 no effect, 100 complete control
[11] = postemergence, 125 g ai/ha, scale 0 to 100
[12] = postemergence, 62 g ai/ha, scale 0 to 100
[13] = Postemergence, 500 g ai/ha, 0 to 100 scale, 0 no effect, 100 complete control
[14] = Postemergence, 2000 g ai/ha, 0 to 100 scale, 0 no effect, 100 complete control
[15] = Preemergence, 500 g ai/ha, visual rating, 0 to 100 scale (0 no effect, 100 complete control)
[16] = Preemergence, 2000 g ai/ha, 0 to 100 scale, 0 no effect, 100 complete control
[17] = 125 g ai/ha, scale 0 to 100 (0 no effect, 100 complete control)
[18] = 250 g ai/ha, scale of 0 to 100, 0 is no effect, 100 is complete control
[19] = 500 g ai/ha, visual rating after 12 to 14 days, scale 0 to 100 (0 no effect, 100 complete control)
[20] = Preemergence, 2000 g ai/ha, visual rating, 0 to 100 scale (0 no effect, 100 complete control)
[21] = preemergence, 500 g ai/ha, visual injury, 0 to 100 scale (0 no effect, 100 complete control)
[22] = 62 g ai/ha, preemergence, scale 0 to 100
[23] = 250 g ai/ha, scale 0-100, preemergence
[24] = 500 g ai/ha, scale 0 to 100 (0 no effect, 100 complete control), visual, 12 to 14 days, preemergence
[25] = post-emergence, Postemergence, 0 to 100 scale, 0 no effect, 100 complete control
[26] = post-emergence, Postemergence, 500 g ai/ha, 0 to 100 scale, 0 no effect, 100 complete control
[27] = pre-emergence, preemergence, visual injury, 0 to 100 scale (0 no effect, 100 complete control)
[28] = pre-emergence, preemergence, 500 g ai/ha, visual injury, 0 to 100 scale (0 no effect, 100 complete control)

## CCCCOC(=O)c1cccc(NC(=O)c2cc(C(C)(C)C)nn2CC)c1 [Compound 86]
[1]; [9]
  Surinam Grass plant response rating: 85
[1]; [10]
  Plant response rating, Surinam Grass: 70
[1]; [11]
  Plant response rating, Surinam Grass: 60
[1]; [12]
  Plant response rating, Surinam Grass: 10
[2]; [9]
  Velvetleaf plant response rating: 85
[2]; [10]
  Plant response rating, Velvetleaf: 80
[2]; [11]
  Plant response rating, Velvetleaf: 60
[2]; [12]
  Plant response rating, Velvetleaf: 40
[3]; [13]
  Morningglory plant response rating: 20
[3]; [14]
  Plant response rating, Morningglory: 35
[3]; [15]
  Morningglory plant response rating: 0
[3]; [16]
  Morningglory plant response rating: 15
[4]; [9]
  Johnsongrass plant response rating: 30
[4]; [10]
  Plant response rating, Johnsongrass: 10
[4]; [12]
  Plant response rating, Johnsongrass: 10
[5]; [13]
  Barnyardgrass plant response rating: 20
[5]; [14]
  Plant response rating, Barnyardgrass: 20
[5]; [15]
  Barnyardgrass plant response rating: 0
[5]; [16]
  Barnyardgrass plant response rating: 0
[6]; [9]
  Corn plant response rating: 30
[6]; [10]
  Plant response rating, Corn: 20
[6]; [11]
  Plant response rating, Corn: 20
[6]; [12]
  Plant response rating, Corn: 15
[7]; [9]
  Cupgrass, Woolly plant response rating: 85
[7]; [10]
  Plant response rating, Cupgrass, Woolly: 80
[7]; [11]
  Plant response rating, Cupgrass, Woolly: 70
[7]; [12]
  Plant response rating, Cupgrass, Woolly: 50

## C=Cn1nc(C(C)(C)C)cc1C(=O)Nc1cccc(C(C)=O)c1 [Compound 127]
[8]; 62 g ai/ha, scale 0 to 100 (0 no effect, 100 complete control)
  Sedge, Umbrella plant response rating: 80
[8]; [17]
  Sedge, Umbrella plant response rating: 80
[8]; [18]
  Sedge, Umbrella plant response rating: 80
[8]; [19]
  Plant response rating, Sedge, Umbrella: 85
[3]; [13]
  Morningglory plant response rating: 10
[3]; [14]
  Plant response rating, Morningglory: 20
[3]; [15]
  Morningglory plant response rating: 30
[3]; [20]
  Morningglory plant response rating: 30
[5]; [13]
  Barnyardgrass plant response rating: 30
[5]; [14]
  Plant response rating, Barnyardgrass: 50
[5]; [15]
  Barnyardgrass plant response rating: 20
[5]; [20]
  Barnyardgrass plant response rating: 30

## CCn1nc(C(C)(C)C)c(F)c1C(=O)Nc1cc(C(=O)N(C)C)ccc1F [Compound 276, N-[5-[(dimethylamino)carbonyl]-2-fluorophenyl]-3-(1,1-dimethylethyl)-1-ethyl-4-fluoro-1H-pyrazole-5-carboxamide]
[8]; Cyperus difformis, 62 g ai/ha, scale 0 to 100, read-out: Sedge, Umbrella plant response rating
  pest or weed control at 62 g/ha: 45%
[8]; Cyperus difformis, 125 g ai/ha, scale 0 to 100 (0 no effect, 100 complete control), read-out: Sedge, Umbrella plant response rating
  pest or weed control at 125 g/ha: 75%
[8]; Cyperus difformis, 250 g ai/ha, scale of 0 to 100, 0 is no effect, 100 is complete control, read-out: Sedge, Umbrella plant response rating
  pest or weed control at 250 g/ha: 80%
[8]; Cyperus difformis, 500 g ai/ha, visual rating after 12 to 14 days, scale 0 to 100 (0 no effect, 100 complete control), read-out: Plant response rating, Sedge, Umbrella
  pest or weed control at 500 g/ha: 85%

## C=CCN(C)C(=O)c1cccc(NC(=O)c2cc(C(C)(C)C)nn2CC)c1 [Compound 285]
[8]; 62 g ai/ha, scale 0 to 100
  Sedge, Umbrella plant response rating: 25
[8]; [17]
  Sedge, Umbrella plant response rating: 35
[8]; [18]
  Sedge, Umbrella plant response rating: 50
[8]; [19]
  Plant response rating, Sedge, Umbrella: 65
[3]; [13]
  Morningglory plant response rating: 40
[3]; [14]
  Plant response rating, Morningglory: 50
[3]; [20]
  Morningglory plant response rating: 45
[3]; [21]
  Morningglory plant response rating: 25
[5]; [13]
  Barnyardgrass plant response rating: 55
[5]; [14]
  Plant response rating, Barnyardgrass: 80
[5]; [20]
  Barnyardgrass plant response rating: 90
[5]; [21]
  Barnyardgrass plant response rating: 70

## CCOC(=O)c1cccc(NC(=O)c2cc(C(C)(C)C)nn2C)n1 [Compound 313]
[8]; 16 g ai/ha, scale 0 to 100
  Sedge, Umbrella plant response rating: 0
[8]; 31 g ai/ha, scale 0 to 100
  Sedge, Umbrella plant response rating: 0
[8]; 62 g ai/ha, scale 0 to 100
  Sedge, Umbrella plant response rating: 30
[8]; [17]
  Sedge, Umbrella plant response rating: 70
[3]; [13]
  Morningglory plant response rating: 30
[3]; [14]
  Plant response rating, Morningglory: 55
[3]; [20]
  Morningglory plant response rating: 55
[3]; [21]
  Morningglory plant response rating: 20
[5]; [13]
  Barnyardgrass plant response rating: 80
[5]; [14]
  Plant response rating, Barnyardgrass: 95
[5]; [20]
  Barnyardgrass plant response rating: 90
[5]; [21]
  Barnyardgrass plant response rating: 80

## CCNC(=O)c1ccc(F)c(NC(=O)c2c3c(nn2CC)C(C)(C)CC3)c1 [Compound 353]
[8]; 62 g ai/ha, scale 0 to 100
  Sedge, Umbrella plant response rating: 0
[8]; [17]
  Sedge, Umbrella plant response rating: 0
[8]; [18]
  Sedge, Umbrella plant response rating: 50
[8]; [19]
  Plant response rating, Sedge, Umbrella: 50

## CCc1nn(C(C)(C)C)nc1C(=O)Nc1cccc(C(=O)N(C)CC)c1 [Compound 384]
[8]; 62 g ai/ha, scale 0 to 100
  Sedge, Umbrella plant response rating: 80
[8]; [17]
  Sedge, Umbrella plant response rating: 80
[8]; [18]
  Sedge, Umbrella plant response rating: 80
[8]; [19]
  Plant response rating, Sedge, Umbrella: 80
[2]; [22]
  Plant response rating, Velvetleaf: 100
[2]; 125 g ai/ha, preemergence
  Plant response rating (0 = no effect, 100 = complete control), Velvetleaf: 100
[2]; [23]
  Plant response rating, Velvetleaf: 100
[4]; [22]
  Plant response rating, Johnsongrass: 100
[4]; preemergence
  Plant response rating (0 = no effect, 100 = complete control), Johnsongrass: 100
[4]; [23]
  Plant response rating, Johnsongrass: 100
[7]; [22]
  Plant response rating, Cupgrass, Woolly: 55
[7]; 125 g ai/ha, preemergence
  Plant response rating (0 = no effect, 100 = complete control), Cupgrass, Woolly: 75
[7]; [23]
  Plant response rating, Cupgrass, Woolly: 95

## Cc1nn(C(C)(C)C)nc1C(=O)Nc1cccc(C(=O)N2CC=CC2)c1 [Compound 393]
[8]; 62 g ai/ha, scale 0 to 100
  Sedge, Umbrella plant response rating: 70
[8]; [17]
  Sedge, Umbrella plant response rating: 75
[8]; [18]
  Sedge, Umbrella plant response rating: 80
[8]; [19]
  Plant response rating, Sedge, Umbrella: 85
[2]; [22]
  Plant response rating, Velvetleaf: 65
[2]; 125 g ai/ha, preemergence
  Plant response rating (0 = no effect, 100 = complete control), Velvetleaf: 100
[2]; [23]
  Plant response rating, Velvetleaf: 100
[2]; [24]
  Plant response rating, Velvetleaf: 100
[4]; [22]
  Plant response rating, Johnsongrass: 95
[4]; preemergence
  Plant response rating (0 = no effect, 100 = complete control), Johnsongrass: 100
[4]; [23]
  Plant response rating, Johnsongrass: 100
[4]; [24]
  Plant response rating, Johnsongrass: 100
[6]; [22]
  Plant response rating, Corn: 55
[6]; [23]
  Plant response rating, Corn: 75
[6]; [24]
  Plant response rating, Corn: 100
[7]; [22]
  Plant response rating, Cupgrass, Woolly: 30
[7]; 125 g ai/ha, preemergence
  Plant response rating (0 = no effect, 100 = complete control), Cupgrass, Woolly: 70
[7]; [23]
  Plant response rating, Cupgrass, Woolly: 90
[7]; [24]
  Plant response rating, Cupgrass, Woolly: 100

## CCNC(=O)c1cccc(NC(=O)c2nc(C(C)(C)C)nn2CC)c1 [Compound 446, 3-(1,1-dimethylethyl)-1-ethyl-N-[3-[(ethylamino)carbonyl]phenyl]-1H-1,2,4-triazole-5-carboxamide]
[3]; [25]
  pest or weed control at 125 g/ha: 10%
[3]; [26]
  pest or weed control at 500 g/ha: 40%
[3]; [27]
  pest or weed control at 125 g/ha: 10%
[3]; [28]
  pest or weed control at 500 g/ha: 15%
[5]; [25]
  pest or weed control at 125 g/ha: 80%
[5]; [26]
  pest or weed control at 500 g/ha: 90%
[5]; [27]
  pest or weed control at 125 g/ha: 55%
[5]; [28]
  pest or weed control at 500 g/ha: 85%

— patent US20060069132A1, “Azolecarboxamide herbicides” (priority 2004, published 2006)
